Data reported in US20090252674A1, “Tripodal Ligands with the Coordinating Motifs K2 -BH2 or K3 -BH3 Relevant for Biomedical Applications of Organometallic Complexes” (Mallinckrodt Inc., priority 2005, published 2009).

Assay: HPLC analysis of the 6a preparation at different intervals of time (stability under physiologic conditions)
Type: physicochemical
Conditions: PBS, pH 7.4
Method: In a nitrogen-purged glass vial, 100 μL of a 2.5×10^−2 M aqueous solution of ligand 1 were added to 400 μL (7.5 mCi) of the organometallic precursor fac−[^99mTc(OH2)3(CO)3]^+, and the mixture was incubated at room temperature for 30 min. After this time, complex 6a has been obtained in 90% yield, as checked by gradient HPLC analysis (from 100% aqueous 0.1% CF3COOH solution to 100% CH3CN) using a Nucleosil column (10:m, 250 mm×4 mm). The chemical identity of 6a was confirmed by comparing its HPLC chromatogram with the HPLC profile of the analogue Re complex (6) (Retention time: Re, 25.78 min; ^99mTc, 26.28 min). HPLC analysis of the preparation of 6a, at different intervals of time, has shown that 6a is stable under physiologic conditions (PBS, pH 7.4), at least for a period of 24 h.

stable under physiologic conditions, period: ≥ 24 h
Substance: [^99mTc (κ^3-H3B(Tim^Me))(CO)3] [complex 6a]
